The source of these data is patent EP4772506A1, “COMPOUND FOR REGULATING ACTIVITY OF MICRORNA-124” (Jiangsu Chia Tai Fenghai Pharmaceutical Co., Ltd., priority 2023, dated 2025).

What is called AUC(0-t) is exposure summed from dosing to a finite time, without extrapolation to infinity. A higher AUC(0-t) goes with more exposure. In general, Cmax refers to the highest concentration seen after dosing. The term MRT inf denotes the average time that molecules of a dose stay in the body. Broadly, the Tmax is the time at which the peak concentration occurs. As a reminder, the half-life is the time in which the quantity being followed falls by half. A higher half-life goes with slow loss.

In one data set the test system is miR124. Kind of data set: Effect of the compound on miR124 upregulation in PBMCs (qPCR, U6 as internal reference). Type of data set: cell-based, human. As to conditions: miR-124 expression, 5 µM, 6 days, batches normalized. Background: Quantitative PCR measures a nucleic acid by following its amplification.
A short description of data set [1]: Pharmacokinetic study in rats (plasma, LC-MS/MS). As to conditions: for AUC(0-t) / Cmax / MRT inf / Tmax / half-life: rat; for F: absolute bioavailability, SD male rats, p.o. 25 mg/kg vs i.v. 1 mg/kg.
Experimental: • (1) SD male rats were used as test animals.
The administration solvent was a physiological saline solution containing 10% DMSO + 10% polyoxyl castor oil (Cremophor EL). Fasting was maintained for approximately 12 hours prior to administration, and free feeding was allowed 4 hours post-administration, with no water restriction. […] After gently inverting the tube to fully mix the anticoagulant EDTA-K2 with the blood, the tube was immediately placed on wet ice. The plasma was separated by centrifugation immediately after blood collection under the following centrifugation conditions: 4°C, 3500 rpm, and 5 min. The upper plasma layer was transferred and stored at -80°C until sample analysis. […] The pharmacokinetic parameters were calculated from the sample analysis results using WinNonlin software.
Data set [2] relates to dextran sulfate sodium (DSS)-induced ulcerative colitis. Description: Preventive and therapeutic effects on DSS-induced ulcerative colitis (UC) in mice. The following applies: 50 mg/kg qd by gavage; for relative body weight (% of initial): mean ± SEM. Type of data set: in vivo, C57BL/6 mice. As to the method:
The preventive and therapeutic effects of the positive drug ABX464 and Compound 23 of the present disclosure on dextran sulfate sodium (DSS)-induced ulcerative colitis were evaluated using a DSS-induced ulcerative colitis (UC) model.
Female C57BL/6 mice (20-22 g) were randomly divided into 7 groups according to body weight after adaptive feeding, as shown in Table 4. On day 1, the mice were switched to 3% DSS feeding. After 10 days of DSS feeding, they were switched back to normal drinking water until day 13. From day 1 to day 13, the mice were continuously administered the corresponding solvents and drugs by gavage. Body weight changes were recorded daily from day 1 to day 13. On day 13, after recording body weight, the mice were dissected to measure colon length. The preventive and therapeutic effects of the test drug on ulcerative colitis in mice were evaluated based on relative body weight change rate and colon length. Table 4. Experimental animal grouping and model induction period

A short description of data set [3]: Pharmacokinetic study in beagle dogs (plasma, LC-MS/MS). Type of data set: in vivo. How it is done:
The pharmacokinetic characteristics of test compound 45 was investigated in beagle dogs.
The gavage group was fasted for no less than 12 hours before administration, with free access to water. After 4 h of administration, the dogs were fed uniformly. […] The upper plasma layer was transferred and stored at -20°C until sample analysis. The concentration of the test compound in dog plasma was determined using the LC-MS/MS method. Pharmacokinetic parameters were fitted using WinNonlin software, and absolute bioavailability was calculated. Table 6. Pharmacokinetic parameters of compounds in beagle dogs

The mark [4] stands for this setting: male, Sprague-Dawley (SD), plasma, po, 20 mg/kg.

Experimental for miR124: The effect of test compounds on miR124 expression levels was evaluated in human peripheral blood mononuclear cells (PBMCs). […] Test compounds (final concentration: 5 µM) were added for treatment at 37°C, 5% CO2 for 6 days, with medium replacement on day 3. The control group was treated with an equal volume of DMSO under the same conditions.
RNA Extraction: On day 6, cells were collected in a 15 mL centrifuge tube and centrifuged at 400g for 10 min, followed by supernatant removal. […] The upper RNA layer was aspirated into a clean 1.5 mL centrifuge tube (RNase-free), an equal volume of isopropanol was added, and left at room temperature for 10 min to precipitate RNA. Centrifugation at 4°C and 12000g for 10 min yielded a small white pellet at the tube bottom.
Fluorescent quantitative PCR reaction: miRNA quantification was performed using SYBR Green I intercalating fluorescence method, with simultaneous detection of the housekeeping gene U6 transcript level as internal reference.

As to `FC(F)(F)Oc1ccc(Nc2ccc3cccc(Cl)c3n2)cc1` [ABX464, reference compound], the “Average fold change compared to DMSO treatment, Average value” in the data set with miR124 is given as 6.91. Besides, the AUC(0-t) in data set [1] (setting [4]) is 2310 ng·h/mL. The compound also showed a Cmax in data set [1] (setting [4]) of 727 ng/mL. In addition, in data set [1] (setting [4]), the MRT inf amounted to 2.73 h. Besides, the Tmax in data set [1] (setting [4]) is 2 h. Moreover, in data set [1] (setting [4]), the half-life is 0.86 h. The compound also returned a weight loss in data set [2] (by day 10) of 6.02%. For the same compound, the “relative body weight (% of initial)” value in data set [2] (day 1) is listed as 100±0.00%; in data set [2] (day 2), 101.6± 0.45%; in data set [2] (day 3), 101.9± 0.47%; in data set [2] (day 4), 101.9± 0.62%; in data set [2] (day 5), 101.1± 0.82%; in data set [2] (day 6), 98.5±0.79%. The “relative body weight (% of initial)” value in data set [2] (day 7) is 95.6±1.09%; in data set [2] (day 8) it was 93.5± 1.35%; in data set [2] (day 9) it was 93.0±1.33%; in data set [2] (day 10) it was 94.0± 1.27 %; in data set [2] (day 11) it was 92.4± 2.22 %; in data set [2] (day 12), 92.7±2.19%. For the same compound, the “relative body weight (% of initial)” value in data set [2] (day 13) is 92.0±2.52%. The compound also gave a Colon length Mean in data set [2] (day 13) of 7.72 cm. Also, in data set [2] (of the control group, day 13, 50 mg/kg), the “Relative colon length (%)” value worked out at 96.5%.

Compound `CN(C)CCN(C)c1cc(Cl)cc2nc(Nc3ccc(OC(F)(F)F)cc3)ncc12` [Compound 44] gave a F in data set [1] of 34.3%. In data set [1] (in vivo, iv, 1 mg/kg), this compound showed an AUC(0-t) of 650 ng·h/mL, an MRT inf of 8.9 h and a half-life of 15.1 h. Besides, in data set [1] (in vivo, po, 25 mg/kg), the AUC(0-t) stood at 5570 ng·h/mL, the highest level (Cmax) was 389 ng/mL, the MRT inf is 8.2 h and the Tmax is 6 h. Moreover, in data set [1] (in vivo, po, 25 mg/kg), the half-life is 8.7 h.

Compound `FC(F)(F)Oc1ccc(Nc2ncc3c(N4CCOCC4)cc(Cl)cc3n2)cc1` [Compound 45] registered a F in data set [1] of 27.6%. For the same compound, in data set [1] (in vivo, iv, 1 mg/kg), the AUC(0-t) was found to be 1180 ng·h/mL, the MRT inf was 1.5 h and the half-life is 2.2 h. For the same compound, in data set [1] (in vivo, po, 25 mg/kg), the area under the curve AUC(0-t) turned out to be 8400 ng·h/mL, the Cmax is 2550 ng/mL, the MRT inf turned out to be 3.2 h and the Tmax was 2 h. The half-life in data set [1] (in vivo, po, 25 mg/kg) is 5.4 h. The compound also gave a F in data set [3] (absolute bioavailability, p.o. 6 mg/kg vs i.v. 1 mg/kg) of 10.7%. In data set [3] (dog, in vivo, iv, i.v. 1mg/kg), the area under the curve AUC(0-t) was 1560 ng·h/mL, the MRT inf turned out to be 3.56 h and the half-life is 8.88 h. In data set [3] (dog, in vivo, po, p.o. 6 mg/kg), the AUC(0-t) was determined as 990 ng·h/mL, the peak level (Cmax) was 204 ng/mL, the MRT inf amounted to 5.9 h and the Tmax is 2 h. The same compound had a half-life in data set [3] (dog, in vivo, po, p.o. 6 mg/kg) of 7.18 h.
